Assays:
BT474 cells [1] = experiment: Neutral comet assay in BT474 cells; assay type: cell-based, human; conditions: 24 hours post-treatment
Experimental: (§1) Cells were seeded in six-well plates at a density of 2-4×10^5 cells per well the day before transfection. Cells were transfected with 2 μg of HER2-targeted TFO or MIX24 using Oligofectamine (Invitrogen) or Dharmafect-1 (Dharmacon) transfection reagent. Transfection was performed as per manufacturer's instructions. siRNA directed against p53, XPD and non-target controls (ON-Target plus SMARTpool reagents; (Dharmacon) were transfected into BT474 cells using Dharmafect-1 transfection reagent (Dharmacon) according to the manufacturers instructions. Western blot analysis was used to confirm knockdown of protein.
(§2) Comet Assay. Neutral cornet assays were performed 24 h post TFO-transfection as per the manufacturers instructions (Trevigen) with the adjustment of 3.5×10^5 cells/ml for each single cell suspension and 30 minutes electrophoresis. Comets were visualized using an Axiovert 200 microscope and analyzed with Autocomet software. Approximately 100-200 comets were analyzed per experiment. Results were expressed as mean tail moment.

BT474 cells [2] = experiment: Immunofluorescence of γH2AX and 53BP1 foci in BT474 cells; assay type: cell-based, human
Experimental: (§3) Immunofluorescence. Cells were seeded onto UV-irradiated coverslips and were treated for 24 h with HER2-205, MIX24, or a mock transfection. Cells were processed 24 h post-transfection, fixed with 4% formaldehyde and then incubated with ice-cold 100% methanol for 20 minutes followed by a methanol and acetone solution (1:1) for 20 minutes each at −20° C. After washing with PBS, cells were blocked with blocking buffer (4% BSA, 0.2% Triton X-100 in PBS) for 30 minutes and then incubated overnight with the following primary antibodies: γH2AX (1:500; Cell Signaling or Millipore) and 53BP1 (1:100; Santa Cruz) in blocking buffer at 4° C. After three washes, cells were incubated with secondary antibodies Alexa 488 F(ab′)2 fragment goat anti-rabbit IgG or Alexa 568 F(ab′)2 fragment goat anti-mouse IgG (1:1000; Molecular Probes) for 1 h at room temperature. Cells were then mounted on microscope glass slides with anti-fade mounting media containing DAPI (Life Technologies), and pictures were taken with a Leica SP5 microscope. Immunofluorescence experiments were repeated for validation.

HER2-positive cell lines = experiment: Annexin-V apoptosis analysis in breast cancer cell lines; assay type: cell-based, human; conditions: 24 h post TFO-treatment
Experimental: (§4) Cell Lines and Transfections. Human breast cancer cell lines were obtained from ATCC and routinely tested for mycoplasma. The human cell lines, MDA-MB-453, SKBR3, and BT474 are HER2-amplified breast cancer cell lines. BT20 and MCF7 cells are non-amplified breast cancer cell lines. MCF-10A is a non-tumorigenic breast epithelial cell line. PEO1 and SKOV3 are human ovarian cancer cell lines with HER2 gene amplification.
(§5) Apoptosis analysis. Cells (2−4×10^5) were seeded in six-well plates 24 h prior to treatment with MIX24, HER2-1 or HER2-205 (2 μg). Post-treatment analysis was performed using the Annexin V-FITC/PI apoptosis detection kit (BD Pharmingen) according to the manufacturers protocol. Apoptotic frequency was calculated as the combined percentage of early and late apoptotic cells. Data analysis was performed using Flow-Jo software.

HER2 [3] = experiment: HER2 gene expression by RT-PCR; assay type: cell-based, human; conditions: non-amplified and amplified breast cancer cell lines
Experimental: Gene Expression. RNA was extracted from snap-frozen cells using the RNeasy Kit (Qiagen) per the manufacturers protocol. cDNA synthesis was carried out with 10 μg of RNA via reverse transcription reactions and the High-Capacity cDNA Reverse Transcription Kit (ThermoFisher Scientific). cDNA (10 ng) was then combined with TaqMan Universal PCR master mix (20 μl) (Applied Biosystem) and primers specific to HER2 (HER2, Hs01001580_m1, ThermoFisher Scientific) or the internal control, β-actin (Hs99999903_m1, ThermoFisher Scientific). qRT-PCR was performed in 96-well optical plates in triplicate for each sample. Briefly, reactions were performed at 50° C. for 2 minutes, followed by 95° C. for 10 minutes. Amplification of the target or control gene was carried out with 40 cycles of the two-step reaction, which included 95° C. for 15 seconds and 1 minute at 60° C. β-actin expression levels were used to normalize the difference between cDNA levels in different samples. Relative expression levels were calculated using the 2(-Delta Delta C(T)) method.

PE01 and SKOV3 cells [4] = experiment: Apoptosis in ovarian cancer cells (Annexin V, cleaved PARP); assay type: cell-based, human; conditions: Annexin V 48 h post-treatment
Experimental: (§6) Western blotting. Whole cell lysates were prepared from floating and adherent cells using RIPA buffer according to standard protocols. Total protein (30-50 μg per sample) was resolved by SDS-PAGE. Proteins were detected by a standard immunoblot protocol using the following primary antibodies: cleaved PARP, cleaved caspase 3, γH2AX, XPD, p53, HER2, pHER2 ([…]), HER3, pHER3 (Y1289), HER4, pHER4 (Y1284), EGFR, pEGFR (Y1068), Chk1, pChk1(S345), pChk2 (T68), and Chk2 (Cell Signaling Technology); pH2AX (tyrosine 142; EMD Millipore); tubulin (clone B-512; Sigma), and GAPDH-HRP (Proteintech). Each experiment was repeated with independent sample preparation a minimum of three times, and representative western blots are shown.
as §5

PE01 and SKOV3 cells [5] = experiment: Neutral comet assay in ovarian cancer cells; assay type: cell-based, human
Experimental: as §2

BT474 cells [6] = experiment: Flow cytometry of phosphorylated ATM; assay type: cell-based, human; conditions: 24 h
Experimental: Flow Cytometry. BT474 cells were collected 24 h following treatment with either MIX24 HER2-205. After washing with PBS, cells were incubated with 1% paraformaldehyde for 15 minutes on ice. Cells were then fixed with cold 70% ethanol at −20° C. for 2 h or kept for up to 2 weeks until further analysis. Cells were centrifuged and rinsed with PBS, blocked with PBST buffer (1% w/v bovine serum albumin and 0.2% v/v Triton X-100 in PBS) for 15 minutes on ice, followed by another PBS rinse. Cells were first incubated with anti-phospho-ATM (S1981, EMD Millipore) in PBST at 1:100 dilution for 1 h at room temperature. Cells were rinsed with PBST and incubated with anti-rabbit IgG Fab2 Alexa 488 (Molecular Probes) at 1:100 dilution at room temperature for 1 h, and then rinsed with PBST. Acquisition of labeled cells and analysis of data was completed using a flow cytometer (FACS Calibur) and FlowJo software respectively.

BT474 cells [7] = experiment: Apoptosis after XPD knockdown in BT474 cells (Western blot); assay type: cell-based, human; conditions: siRNA XPD knockdown
Experimental: as §1, §6

Chk1 = experiment: Western blot of DNA damage response protein phosphorylation; assay type: cell-based, human; conditions: HER2-amplified vs normal copy number cells
Experimental: as §6

HER2 [8] = experiment: Western blot of total HER2 protein and phosphorylation levels; assay type: cell-based, human; conditions: HER2-positive cells compared to control samples
Experimental: as §6

[9] = test system: BT474 human breast cancer tumors; experiment: BT474 breast cancer subcutaneous xenograft model; assay type: in vivo, athymic nude mice; conditions: for tumor growth relative to controls / tumor tripling time post-initial dose: 20 mg/kg IP, 3 doses over 7 days
Experimental: Six to seven-week old female BALB/c athymic, ovariectomized nude mice (Harlan Sprague-Dawley) were implanted with 0.72 mg, 60-day release 17β-estradiol pellets (Innovative Research). […] Tumor volumes in each group were then monitored and mice were sacrificed when tumor volumes reached 1000 mm^3. Error bars represent standard error of the mean. Tumor tripling time was calculated as the time required for tumors to increase in volume […] over baseline (defined as tumor volume before administration of dose on first day of treatment). Harvested tumors were fixed in 10% neutral buffered formalin and processed by Yale Pathology Tissue Services for H&E, Caspase 3, HER2, and Ki67. Images were taken at 4× magnification.

PE01 and SKOV3 cells [10] = experiment: Immunofluorescence of γH2AX foci in ovarian cancer cells; assay type: cell-based, human; conditions: 24 h
Experimental: as §3

[11] = test system: SKOV3 ovarian cancer xenografts; experiment: SKOV3 ovarian cancer subcutaneous xenograft model; conditions: HER2-205 20 mg/kg vs cisplatin 10 mg/kg, IP
Experimental: To establish an ovarian cancer model, female BALB/c athymic nude mice were injected subcutaneously in the flank with 5×10^6 SKOV3 cells suspended in 100 μl equal volume of media and Matrigel. Mice bearing a tumor of about 100 mm^3 in volume were randomly divided into three treatment groups: vehicle (PBS), n=5; HER2-targeted TFO, HER2-205, n=5; and cisplatin, n=7. […] Tumor volumes were monitored and tumor tripling times were calculated as described above.

PE01 and SKOV3 cells [12] = experiment: Monolayer growth survival assay in ovarian cancer cells; assay type: cell-based, human; conditions: 72 h after treatment
Experimental: Survival Assay. Cell survival seas assayed by visualization of monolayer growth. Briefly, cells were plated at a defined density in 6 or 12-well dishes and treated with either transfection reagent alone (mock), MIX24, or HER2-205 as previously described. Monolayers were visualized by staining cells with crystal violet 72 h post-treatment.

[13] = test system: cell lines containing multiple copies of the HER2 gene; experiment: Neutral comet assay in breast cancer cell lines; assay type: cell-based, human; conditions: 24 h after treatment
Experimental: as §4, §1
Comet Assay. […] Comets were visualized using an Axiovert 200 microscope and analyzed with Autocomet software. Approximately 100-200 comets were analyzed per experiment. Results were expressed as mean tail moment.

[14] = 24 h after single dose 20 mg/kg

## HER2-40118: TFO targeting intron 19 of the HER2 gene, 5′-GGGGGAAATAGGGAGGGTGGGG-3′ (triplex-forming oligonucleotide, chemistry not given here, further chemistry not given here)
BT474 cells [1]
  DSBs as indicated by DNA tail moment: significantly, more DSBs

## HER2-5922-2: TFO targeting intron 2 of the HER2 gene, 5′-GGGAAAGAGGAGGGGGTGAGAGGAGTGGGG-3′ (triplex-forming oligonucleotide, chemistry not given here, further chemistry not given here)
BT474 cells [1]
  DSBs as indicated by DNA tail moment: significantly, more DSBs

## HER2-205: TFO binding a polypurine sequence in the HER2 coding region, 5′-GAGGAGGAGTGGGAGAATGGGGGG-3′ (DNA GAGGAGGAGTGGGAGAATGGGGGG; DNA, backbone not given here)
BT474 cells [2]; 24 h
  colocalization of γH2AX and 53BP1, percent of cells: 49%
BT474 cells [2]; 24 h post-treatment
  γH2AX and 53BP1 foci compared to MIX24: substantially increased
HER2-positive cell lines
  percentage of apoptotic cells (Annexin-V): higher percentage of apoptotic cells than that with HER2-1
HER2 [3]
  HER2 gene expression: not significantly affected
PE01 and SKOV3 cells [4]
  apoptosis: activated apoptosis
PE01 and SKOV3 cells [5]
  DNA tail moments: increased
BT474 cells [6]
  pATM positive cells: increase
BT474 cells [7]
  phosphorylation of Y142 in H2AX and activation of apoptosis: requirement for XPD
Chk1
  Chk1 phosphorylation at serine 345: observed after HER2-205 treatment in the HER2-amplified cells and not in the cells with normal HER2 gene copy numbers
HER2 [8]
  total and activated HER2 levels: remain the same
[9]
  tumor growth relative to controls: suppressed tumor growth to a significantly greater degree than the controls
  tumor tripling time post-initial dose: 29 ± 5.7 days
[9]; [14]
  proliferation by Ki67 staining in tumor sections: decreased proliferation
  tumor cell apoptosis (cleaved caspase 3) in tumor sections: Tumor cell apoptosis
[9]; HER2-positive breast cancer xenografts
  reduction in tumor volumes compared to controls: 52%
PE01 and SKOV3 cells [10]
  γH2AX foci: increased
BT474 cells [1]
  DSBs as indicated by DNA tail moment: significantly, more DSBs
[11]; 3 doses
  survival (tumors smaller than three times baseline) compared with cisplatin: substantial survival advantage
[11]; 3 doses once per week
  average tumor volume smaller than in cisplatin-treated mice: 49%
PE01 and SKOV3 cells [12]
  cell viability (monolayer growth): reduced cell viability
[13]
  DSBs as indicated by DNA tail moment: significantly more DSBs

## MIX24: control mixed-sequence oligonucleotide, 5′-AGTCAGTCAGTCAGTCAGTCAGTC-3′ (DNA AGTCAGTCAGTCAGTCAGTCAGTC; listed as DNA, chemistry not given here) [reference compound]
[9]
  tumor growth relative to controls: no impact
  tumor tripling time post-initial dose: 16.3 ± 6.6 days
